pIC50: −log10 of the molar value. Read-outs that look alike come from different tables or passages of the source.
How the values were obtained:
KRAS G12C = KRAS G12C (Homo sapiens (Human), UniProt P01116, C118A/G12C); assay: 2 h coupled exchange assay; format: biochemical
Procedure: The term “2 h coupled exchange assay” or “20 h coupled exchange assay” as used herein refers to the assay described in the Section entitled “BIOLOGICAL EVALUATION.”

[1] = test system: A549 (human lung carcinoma) cells; assay: Cell Viability Assay (CellTiter-Glo), A549; format: cell-based
Procedure: MIA PaCa-2 (human pancreatic carcinoma; ATCC CRL-1420) or A549 (human lung carcinoma; ATCC CCL-185) cells were cultured in RPMI 1640 medium containing 10% fetal bovine serum and 1× penicillin/streptomycin/L-glutamine. Cells were seeded in 384-well plates at a density of 1.67E+04 cells/mL and incubated at 37° C., 5% CO2, overnight. Serially-diluted compound or DMSO was added to the cells, and plates were incubated at 37° C., 5% CO2 for 72 h. Cell viability was measured using a CellTiter-Glo® Luminescent Cell Viability Assay kit (Promega) according to the manufacturer's protocol. The luminescence signal of treated samples was normalized to DMSO control, and data were analyzed using a 4-parameter logistic model to calculate IC50 values.

[2] = test system: MIA PaCa-2 (human pancreatic carcinoma) cells; assay: Cell Viability Assay (CellTiter-Glo), MIA PaCa-2; format: cell-based
Procedure: Serially-diluted compound or DMSO was added to the cells, and plates were incubated at 37° C., 5% CO2 for 72 h. Cell viability was measured using a CellTiter-Glo® Luminescent Cell Viability Assay kit (Promega) according to the manufacturer's protocol. The luminescence signal of treated samples was normalized to DMSO control, and data were analyzed using a 4-parameter logistic model to calculate IC50 values.

[3] = read-out: Avg 2 h Coupled exchange IC50, 2 h compound pre-incubation, SOS-mediated nucleotide exchange
[4] = Avg 2 h Coupled exchange IC50, 2 h compound pre-incubation, SOS-mediated nucleotide exchange
[5] = Avg 2 h Coupled exchange IC50, 2 h compound pre-incubation
[6] = read-out: Avg 2 h Coupled exchange IC50, 2 h compound pre-incubation

Compound	pIC50 ([1]; 72 h)	pIC50 ([2]; 72 h)	pIC50 ([1]; Homo sapiens, A549, 72 h)	pIC50 ([2]; Homo sapiens, MIA PaCa-2, 72 h)	other results
7,7-dimethyl-4-(5-methyl-1H-indazol-4-yl)-2-(2-((^2H3)-2-propenoyl)-2,6-diazaspiro[3.4]octan-6-yl)-5,6,7,8-tetrahydro-3-quinolinecarbonitrile [Example 13-1]	5.31	7.19			pIC50 (KRAS G12C; [3]): 7.44
C=CC(=O)N1CC2(CCN(c3nc4c(c(-c5c(C)c(C)cc6cnn(C)c56)c3C)[C@@H]3CC[C@H]4C3)C2)C1 (atropisomer, axis not shown; (M)) [Example 2-111, (M)-1-(6-((1S,8R)-5-methyl-6-(1,5,6-trimethyl-1H-indazol-7-yl)-3-azatricyclo[6.2.1.0^2,7]undeca-2,4,6-trien-4-yl)-2,6-diazaspiro[3.4]octan-2-yl)-2-propen-1-one]			4.96	6.68	pIC50 (KRAS G12C; [4]): 8.52
C=CC(=O)N1CC2(CCN(c3nc4c(c(-c5c(C)ccc6[nH]ncc56)c3C#N)CC(C)(C)C4)[C@@H]2C)C1 (atropisomer, axis not shown; (P)) [Example 13-54, (P)-6,6-dimethyl-4-(5-methyl-1H-indazol-4-yl)-2-((5R)-5-methyl-2-(2-propenoyl)-2,6-diazaspiro[3.4]octan-6-yl)-6,7-dihydro-5H-cyclopenta[b]pyridine-3-carbonitrile]			< 5.30	7.24	pIC50 (KRAS G12C; [4]): 7.77
C=CC(=O)N1CC2(CCN(c3nc4c(c(-c5c(C)ccc6[nH]ncc56)c3C#N)CC[C@@H](C(F)(F)F)C4)C2)C1 (racemic) [Example 13-10, (7R)-4-(5-methyl-1H-indazol-4-yl)-2-(2-(2-propenoyl)-2,6-diazaspiro[3.4]octan-6-yl)-7-(trifluoromethyl)-5,6,7,8-tetrahydro-3-quinoline-carbonitrile|(7S)-4-(5-methyl-1H-indazol-4-yL)-2-(2-(2-propenoyl)-2,6-diazaspiro[3.4]octan-6-yl)-7-(trifluoromethyl)-5,6,7,8-tetrahydro-3-quinolinecarbonitrile]	< 5.30	6.61			pIC50 (KRAS G12C; [3]): 7.15
C=CC(=O)N1CC2(CCN(c3nc4c(c(-c5c(C)ccc6[nH]ncc56)c3C#N)[C@H](C)O[C@H](C)C4)C2)C1 (racemic) [Example 13-13, (5R,7S)-5,7-dimethyl-4-(5-methyl-1H-indazol-4-yl)-2-(2-(2-propenoyl)-2,6-diazaspiro[3.4]octan-6-yl)-7,8-dihydro-5H-pyrano[4,3-b]pyridine-3-carbonitrile|(5S,7R)-5,7-dimethyl-4-(5-methyl-1H-indazol-4-yl)-2-(2-(2-propenoyl)-2,6-diazaspiro[3.4]octan-6-yl)-7,8-dihydro-5H-pyrano[4,3-b]pyridine-3-carbonitrile]			< 5.30	6.34	pIC50 (KRAS G12C; [4]): 7.03
C=CC(=O)N1CC2(CCN(c3nc4c(c(-c5cc(O)cc6ccccc56)c3Cl)COC(C)(C)C4)C2)C1 (single isomer, unassigned) [Example 2-78, (P)-1-(6-(3-chloro-4-(3-hydroxy-1-naphthalenyl)-7,7-dimethyl-7,8-dihydro-5H-pyrano[4,3-b]pyridin-2-yl)-2,6-diazaspiro[3,4]octan-2-yl)-2-propen-1-one]			< 5.30	7.85	
C=CC(=O)N1CC2(CCN(c3nc4c(c(-c5cc(O)cc6ccccc56)c3Cl)COC(C)(C)C4)C2)C1 [Example 2-76, 1-(6-(3-chloro-4-(3-hydroxy-1-naphthalenyl)-7,7-dimethyl-7,8-dihydro-5H-pyrano[4,3-b]pyridin-2-yl)-2,6-diazaspiro[3.4]octan-2-yl)-2-propen-1-one]			< 5.30	7.59	
C=CC(=O)N1CC2(CCN(c3nc4c(c(-c5[nH]c(=O)cc6ccccc56)c3C#N)CCC(C)(C)C4)C2)C1 [Example 33-2, 7,7-dimethyl-4-(3-oxo-2,3-dihydro-1-isoquinolinyl)-2-(2-(2-propenoyl)-2,6-diazaspiro[3.4]octan-6-yl)-5,6,7,8-tetrahydro-3-quinolinecarbonitrile]					pIC50 (KRAS G12C; [5]): 6.18
(M)-1-(6-(4-(5-chloro-1-methyl-1H-indazol-7-yl)-3,7,7-trimethyl-7,8-dihydro-5H-pyrano[4,3-b]pyridin-2-yl)-2,6-diazaspiro[3.4]octan-2-yl)-2-propen-1-one [Example 2-33]					pIC50 (KRAS G12C; [3]): 4.76
(P)-1-(6-(4-(5-chloro-1-methyl-1H-indazol-7-yl)-3,7,7-trimethyl-7,8-dihydro-5H-pyrano[4,3-b]pyridin-2-yl)-2,6-diazaspiro[3.4]octan-2-yl)-2-propen-1-one [Example 2-34]					pIC50 (KRAS G12C; [3]): 6.37

Further lines, with some results ahead:

pIC50 ([1]; 72 h)	pIC50 ([2]; 72 h)	pIC50 ([1]; Homo sapiens, A549, 72 h)	pIC50 ([2]; Homo sapiens, MIA PaCa-2, 72 h)	Compound	other results
		4.82	7.52	C=CC(=O)N1CC2(CCN(c3nc4c(c(-c5c(C)c(Cl)cc6cnn(C)c56)c3F)CCN(C3COC3)C4)C2)C1 (atropisomer, axis not shown; (M)) [Example 14-107, (M)-1-(6-(4-(5-chloro-1,6-dimethyl-1H-indazol-7-yl)-3-fluoro-7-(3-oxetanyl)-5,6,7,8-tetrahydro-1,7-naphthyridin-2-yl)-2,6-diazaspiro[3.4]octan-2-yl)-2-propen-1-one]	pIC50 (KRAS G12C; [5]): 7.89
5.26	5.71			C=CC(=O)N1CC2(CCN(c3nc4c(c(-c5ccc(F)cc5Cl)c3C#N)CCC(c3scnc3C)=C4)C2)C1 (atropisomer, axis not shown; (M)) [Example 23-32, (M)-4-(2-chloro-4-fluorophenyl)-7-(4-methyl-1,3-thiazol-5-yl)-2-(2-(2-propenoyl)-2,6-diazaspiro[3.4]octan-6-yl)-5,6-dihydro-3-quinolinecarbonitrile]	pIC50 (KRAS G12C; [5]): 6.55
4.60	7.55			C=CC(=O)N1CC2(CCN(c3nc4c(c(-c5c(C)ccc6cnn(C)c56)c3C)CCN(C3(C)COC3)C4)C2)C1 (atropisomer, axis not shown; (M)) [Example 36-2, (M)-1-(6-(4-(1,6-dimethyl-H-indazol-7-yl)-3-methyl-7-(3-methyl-3-oxetanyl)-5,6,7,8-tetrahydro-1,7-naphthyridin-2-yl)-2,6-diazaspiro[3.4]octan-2-yl)-2-propen-1-one]	pIC50 (KRAS G12C; [6]): 7.06
< 5.30	6.22			C=CC(=O)N1CC2(CCN(c3nc4c(c(-c5ccc(F)cc5Cl)c3C#N)CCC(c3scnc3C)=C4)C2)C1 (atropisomer, axis not shown; (P)) [Example 23-33, (P)-4-(2-chloro-4-fluorophenyl)-7-(4-methyl-1,3-thiazol-5-yl)-2-(2-(2-propenoyl)-2,6-diazaspiro[3.4]octan-6-yl)-5,6-dihydro-3-quinolinecarbonitrile]	pIC50 (KRAS G12C; [5]): 7.00
< 5.30	6.04			C=CC(=O)N1CC2(CCN(c3nc4ccccc4c(-c4c(C)ccc5[nH]ncc45)c3C=C)C2)C1 (atropisomer, axis not shown; (P)) [Example 26-1, (P)-1-(6-(3-ethenyl-4-(5-methyl-1H-indazol-4-yl)-2-quinolinyl)-2,6-diazaspiro[3.4]octan-2-yl)-2-propen-1-one]	pIC50 (KRAS G12C; [6]): 6.85
4.73	4.96			C=CC(=O)N1CC2(CCN(c3nc4c(c(-c5c(C)ccc6cnn(C)c56)c3C)CCN(C3(C)COC3)C4)C2)C1 (atropisomer, axis not shown; (P)) [Example 36-3, (P)-1-(6-(4-(1,6-dimethyl-1H-indazol-7-yl)-3-methyl-7-(3-methyl-3-oxetanyl)-5,6,7,8-tetrahydro-1,7-naphthyridin-2-yl)-2,6-diazaspiro[3.4]octan-2-yl)-2-propen-1-one]	pIC50 (KRAS G12C; [6]): 4.19
< 5.30	5.48			C=CC(=O)N1CC2(CCN(c3nc4c(c(-c5cccc(C)c5C)n3)CC[C@@H](c3nccs3)C4)C2)C1 (racemic) [Example 22-3, 1-(6-((7R)-4-(2,3-dimethylphenyl)-7-(1,3-thiazol-2-yl)-5,6,7,8-tetrahydro-2-quinazolinyl)-2,6-diazaspiro[3.4]octan-2-yl)-2-propen-1-one|1-(6-((7S)-4-(2,3-dimethylphenyl)-7-(1,3-thiazol-2-yl)-5,6,7,8-tetrahydro-2-quinazolinyl)-2,6-diazaspiro[3.4]octan-2-yl)-2-propen-1-one]	pIC50 (KRAS G12C; [6]): 6.55
		< 5.30		C=CC(=O)N1CC2(CCN(c3nc4c(c(-c5cc(O)cc6ccccc56)c3F)C[C@H]3C[C@@H]4C3(C)C)C2)C1 (single isomer, unassigned) [Example 14-77]	
		< 5.30	7.41	C=CC(=O)N1CC2(CCN(c3nc4c(c(-c5cc(O)cc6ccccc56)c3F)C[C@H]3C[C@@H]4C3(C)C)C2)C1 [Example 14-1, 1-(6-((1R,9R)-5-fluoro-6-(3-hydroxy-1-naphthalenyl)-10,10-dimethyl-3-azatricyclo[7.1.1.0^2,7]undeca-2,4,6-trien-4-yl)-2,6-diazaspiro[3.4]octan-2-yl)-2-propen-1-one]	

Source: patent US20240059703A1 (AMGEN INC., priority 2021, published 2024)
